In data set [1] the test system is human drug metabolizing enzymes and transporters. Put plainly: Inhibitory DDI index of XueBiJing compounds as perpetrators. To be noted: XueBiJing at label dose; range over the named compounds.
In data set [2] the target is CYP2C19 (Homo sapiens, UniProt P33261). The format is in vitro ADME.
The target in data set [3] is T1, OATP1B3 (Homo sapiens, UniProt Q9NPD5).
T1 sequence (Q9NPD5 1-702): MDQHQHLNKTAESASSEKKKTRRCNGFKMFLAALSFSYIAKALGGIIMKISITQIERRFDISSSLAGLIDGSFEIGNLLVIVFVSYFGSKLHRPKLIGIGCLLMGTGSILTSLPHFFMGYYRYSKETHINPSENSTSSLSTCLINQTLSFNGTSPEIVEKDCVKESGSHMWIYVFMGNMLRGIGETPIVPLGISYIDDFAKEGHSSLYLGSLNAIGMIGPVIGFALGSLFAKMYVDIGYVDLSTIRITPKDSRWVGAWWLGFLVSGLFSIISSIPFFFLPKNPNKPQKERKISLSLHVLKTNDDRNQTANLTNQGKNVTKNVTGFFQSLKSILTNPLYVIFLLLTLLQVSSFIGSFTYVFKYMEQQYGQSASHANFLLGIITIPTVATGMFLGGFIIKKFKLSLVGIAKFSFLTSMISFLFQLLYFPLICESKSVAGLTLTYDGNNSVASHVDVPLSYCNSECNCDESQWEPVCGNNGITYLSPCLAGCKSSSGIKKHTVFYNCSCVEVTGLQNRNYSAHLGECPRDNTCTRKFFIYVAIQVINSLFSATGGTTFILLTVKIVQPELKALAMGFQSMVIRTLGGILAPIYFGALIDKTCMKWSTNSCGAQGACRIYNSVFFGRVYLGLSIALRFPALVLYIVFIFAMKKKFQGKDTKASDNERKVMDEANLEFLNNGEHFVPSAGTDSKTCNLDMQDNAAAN

Data set [4] deals with T1, OATP1B3. Put plainly: in vitro.
For data set [5], the target named is T2, UGT1A1 (Homo sapiens, UniProt P22309).
T2 sequence (P22309 26-533): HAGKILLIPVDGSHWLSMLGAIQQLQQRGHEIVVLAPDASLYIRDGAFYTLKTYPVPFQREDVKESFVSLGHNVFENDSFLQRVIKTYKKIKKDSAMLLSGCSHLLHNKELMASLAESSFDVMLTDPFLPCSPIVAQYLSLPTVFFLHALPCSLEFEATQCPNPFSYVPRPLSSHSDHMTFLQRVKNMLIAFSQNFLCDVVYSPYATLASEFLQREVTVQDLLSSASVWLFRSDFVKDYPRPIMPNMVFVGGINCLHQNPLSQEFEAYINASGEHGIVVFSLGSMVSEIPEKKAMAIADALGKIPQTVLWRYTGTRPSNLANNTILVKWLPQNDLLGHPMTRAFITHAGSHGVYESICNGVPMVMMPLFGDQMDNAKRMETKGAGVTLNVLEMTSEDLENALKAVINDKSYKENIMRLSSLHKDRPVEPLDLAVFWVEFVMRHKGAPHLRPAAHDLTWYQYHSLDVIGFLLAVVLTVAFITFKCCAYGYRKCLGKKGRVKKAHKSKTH
Put plainly: UGT1A1 inhibition by XueBiJing compounds, cDNA-expressed enzyme [E2→E23βG]. The format is in vitro ADME.

The target in data set [6] is T3, UGT2B15 (Homo sapiens, UniProt P54855).
T3 sequence (P54855 24-530): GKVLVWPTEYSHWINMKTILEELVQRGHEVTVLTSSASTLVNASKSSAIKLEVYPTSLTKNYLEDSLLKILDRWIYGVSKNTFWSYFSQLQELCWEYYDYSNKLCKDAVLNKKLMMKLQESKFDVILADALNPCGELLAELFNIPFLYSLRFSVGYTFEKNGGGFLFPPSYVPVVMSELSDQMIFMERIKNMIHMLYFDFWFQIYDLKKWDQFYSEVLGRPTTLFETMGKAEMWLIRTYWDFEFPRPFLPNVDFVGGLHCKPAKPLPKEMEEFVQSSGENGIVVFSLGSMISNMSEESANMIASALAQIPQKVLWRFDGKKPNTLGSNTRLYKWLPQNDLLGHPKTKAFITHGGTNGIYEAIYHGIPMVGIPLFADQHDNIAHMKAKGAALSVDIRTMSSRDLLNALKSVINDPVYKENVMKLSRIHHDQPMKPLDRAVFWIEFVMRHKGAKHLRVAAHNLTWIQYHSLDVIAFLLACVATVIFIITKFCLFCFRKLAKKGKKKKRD
Put plainly: UGT2B15 inhibition by XueBiJing compounds, cDNA-expressed enzyme [SENI→S7G]. The format is in vitro ADME.

In data set [7] the test system is CYP1A2. The settings on record: higher concentrations; range over the named compounds and enzymes.
In data set [8] the target is CYP2C9 (Homo sapiens, UniProt P11712). The format is in vitro ADME.
In data set [9] the test system is CYP3A4. To be noted: higher concentrations; range over the named compounds and enzymes.

Chain of CYP2C19 (P33261 whole entry): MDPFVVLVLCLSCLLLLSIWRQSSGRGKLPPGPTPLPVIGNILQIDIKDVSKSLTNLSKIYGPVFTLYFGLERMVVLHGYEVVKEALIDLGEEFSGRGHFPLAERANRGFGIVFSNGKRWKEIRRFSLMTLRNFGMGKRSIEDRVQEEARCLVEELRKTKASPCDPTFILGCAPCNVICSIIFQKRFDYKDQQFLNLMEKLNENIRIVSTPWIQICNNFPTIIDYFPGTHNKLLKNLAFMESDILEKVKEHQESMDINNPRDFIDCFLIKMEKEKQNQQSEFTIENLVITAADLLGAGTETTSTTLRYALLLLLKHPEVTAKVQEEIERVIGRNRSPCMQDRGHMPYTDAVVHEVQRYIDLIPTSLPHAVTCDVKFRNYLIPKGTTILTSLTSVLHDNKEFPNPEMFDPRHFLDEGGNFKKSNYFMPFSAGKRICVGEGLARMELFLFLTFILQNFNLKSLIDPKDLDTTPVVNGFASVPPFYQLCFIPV
Chain of CYP2C9 (P11712 whole entry): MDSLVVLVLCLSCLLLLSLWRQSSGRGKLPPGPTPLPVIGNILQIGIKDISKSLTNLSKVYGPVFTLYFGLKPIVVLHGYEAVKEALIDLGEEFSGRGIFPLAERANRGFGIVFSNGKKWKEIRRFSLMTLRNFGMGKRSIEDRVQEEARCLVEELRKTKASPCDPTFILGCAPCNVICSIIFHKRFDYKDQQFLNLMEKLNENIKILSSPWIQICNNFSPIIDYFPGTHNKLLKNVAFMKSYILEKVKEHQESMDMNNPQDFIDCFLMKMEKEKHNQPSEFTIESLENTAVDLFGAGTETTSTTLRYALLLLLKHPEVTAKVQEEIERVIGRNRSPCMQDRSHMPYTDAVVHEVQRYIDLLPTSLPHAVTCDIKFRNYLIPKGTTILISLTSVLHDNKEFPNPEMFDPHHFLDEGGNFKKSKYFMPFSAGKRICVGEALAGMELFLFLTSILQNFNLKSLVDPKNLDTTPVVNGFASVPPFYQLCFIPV

With `O=C(/C=C/c1ccc(O)c2c1[C@H](C(=O)O[C@H](Cc1ccc(O)c(O)c1)C(=O)O)[C@@H](c1ccc(O)c(O)c1)O2)O[C@H](Cc1ccc(O)c(O)c1)C(=O)O` [X10, salvianolic acid B], the “DDI index for inhibition of CYP2C9, CYP2C19, OATP1B1, OATP1B3, OAT1 and/or OAT3” value in data set [1] is reported as 0.00003–0.06. In addition, the “Time-dependent inhibition of CYP2C19” value in [2] is reported as “negligible”. For the same molecule, the IC50 in data set [3] was 18 ± 4 µM; in data set [5], 10 ± 1 µM; in [6], 92 ± 25 µM. In addition, the inhibition at 100 μmol/L in [4] was above 50%; in data set [5] (human, cDNA-expressed UGT1A1, probe E2 (20 μmol/L), E23βG formed), above 90%; in [6] (human, cDNA-expressed UGT2B15) it was 55%. The “mRNA-T/U ratio, CYP1A2” value in data set [7] is listed as 4.0 to 9.6. Besides, the “Time-dependent inhibition of CYP2C9” value in [8] was “negligible”. In addition, the “mRNA-T/U ratio, CYP3A4” value in data set [9] is reported as 4.0 to 9.6.

These data come from publication PMC6804443 (Acta Pharmaceutica Sinica. B, 2019).
